# “And” between values parts separate entries of the source, which are not always exact repeats. Identical values can stand only once. The source made the active and inactive calls. No rule for the calls is given here.
# Target: Melanin-concentrating hormone receptor 1 (Homo sapiens) (UniProt Q99705)
# Test: antagonist activity at MCH receptor 1 – cell-based, fluorescence, set 4, counter-screen for GPR7 antagonist project, dose response (AID 588568)
# Details: MCHR1-expressing cells, fluorescence antagonist assay; run 1
row,Compound,IC50
1,COc1ccc(Oc2ccn(-c3ccc(C)cc3)c(=O)c2Cl)cc1,2.79 µM
2,COc1ccc(Oc2c(Cl)cnn(-c3ccc(-c4ccccc4)cc3)c2=O)cc1,7.26 µM and 4.63 µM
3,O=C(C1CCCN1Cc1ccc(Cl)c(Cl)c1)N1CCN(c2ccc([N+](=O)[O-])cc2)CC1 (stereo unspecified),2.13 µM
4,Cc1cccc(Cn2ncc(Cl)c(Oc3ccc(CO)cc3)c2=O)c1,> 11.5 µM (inactive)
5,COc1ccc(Oc2c(Cl)cnn(C(c3ccccc3)c3c(C)noc3C)c2=O)cc1 (stereo unspecified),> 20 µM (inactive)
6,CCOc1ccc(Oc2c(N)cnn(Cc3cccc4ccccc34)c2=O)cc1,5.02 µM
7,COc1ccc(Oc2c(Cl)c(-c3ccccc3)nn(Cc3ccccc3C)c2=O)cc1,8.7 µM
8,COc1ccc(Oc2c(-c3ccccc3C)c(-c3ccccc3C)nn(Cc3ccccc3C)c2=O)cc1,inactive
9,COc1ccc(Oc2c(Cl)cnn(-c3ccc(OC)cc3)c2=O)cc1,inactive
10,COc1ccc(Oc2c(Cl)cnn(C(C)c3cccc4ccccc34)c2=O)cc1 (stereo unspecified),8.69 µM
11,COc1ccc(Oc2c(Cl)cnn(-c3nc4ccccc4c4ccccc34)c2=O)cc1,> 20 µM (inactive)
12,COc1ccc(Oc2c(Cl)cnn(Cc3ccc(Cl)cc3)c2=O)cc1,3.2 µM
13,Cc1cc(C)cc(Cn2[nH]cc(Oc3ccc(CO)cc3)c(=O)c2=O)c1,2.32 µM
14,COc1ccc(Oc2c(-c3ccsc3)c(-c3ccsc3)nn(Cc3ccccc3C)c2=O)cc1,> 20 µM (inactive)
15,Cc1cc(C)cc(-n2ncc(Cl)c(Oc3ccc(-c4ccccc4)cc3)c2=O)c1,8.03 µM
16,CC(C)c1ccc(-n2ncc(Cl)c(Oc3ccc(O)cc3)c2=O)cc1,> 20 µM (inactive)
17,COc1ccc(Oc2c(Cl)cnn(Cc3ccc(F)c4ccccc34)c2=O)cc1,2.49 µM
18,COc1ccc(Oc2c(Cl)cnn(C3=Nc4cc(Cl)ccc4Oc4ccccc43)c2=O)cc1,1.11 µM
19,COc1ccc(Oc2c(C)cnn(Cc3cccc4ccccc34)c2=O)cc1,5.41 µM
20,CCCCCc1ccc(-n2ncc(Cl)c(Oc3ccc(OC)cc3)c2=O)cc1,9.78 µM
21,CCOc1ccc(Oc2ccnn(Cc3cccc4ccccc34)c2=O)cc1,4.6 µM
22,CCOc1ccc(Oc2c(NC(=O)OC(C)(C)C)cnn(Cc3cccc4ccccc34)c2=O)cc1,> 20 µM (inactive)
23,COc1ccc(Oc2c(Cl)cnn(C3=Nc4ccccc4Sc4ccccc43)c2=O)cc1,> 20 µM (inactive)
24,COc1ccc(Oc2c(Cl)cnn(-c3ccc4ccccc4c3)c2=O)cc1,0.438 µM
25,CCc1cccc(-n2ncc(Cl)c(Oc3ccc(OC)cc3)c2=O)c1,2.31 µM
26,O=c1c(Oc2ccc(Oc3ccccc3)cc2)c(Cl)cnn1Cc1cccc2ccccc12,> 20 µM (inactive)

row,Compound,IC50
1,COc1ccc(Oc2c(Cl)cnn(Cc3ccc(C)c4ccccc34)c2=O)cc1,inactive
2,COc1ccc(Oc2cnn(Cc3cccc4ccccc34)c(=O)c2Br)cc1,> 20 µM (inactive)
3,COc1ccc(Oc2c(Cl)cnn(Cc3ccc(-c4ccccc4)cc3)c2=O)cc1,> 20 µM (inactive)
4,COc1ccc(Oc2c(Cl)cnn(Cc3ccc(C4CCCCC4)c4ccccc34)c2=O)cc1,> 20 µM (inactive)
5,COc1ccc(Oc2c(Cl)cnn(Cc3cccc(C(F)(F)F)c3)c2=O)cc1,4.7 µM
6,O=c1c(Oc2ccc(OC(F)(F)F)cc2)c(Cl)cnn1Cc1cccc2ccccc12,inactive
7,COc1ccc(Oc2c(Cl)cnn(CCc3cccc4ccccc34)c2=O)cc1,inactive
8,COc1ccc(Oc2c(Cl)cnn(C(CO)c3ccccc3)c2=O)cc1 (stereo unspecified),inactive
9,COc1ccc(Oc2c(C#N)cnn(-c3ccc(Br)cc3)c2=O)cc1,inactive
10,CC(C)Oc1ccc(Oc2c(Cl)cnn(Cc3cccc4ccccc34)c2=O)cc1,inactive
11,COc1ccc(Oc2c(Cl)cnn(-c3ccc(C)cc3C)c2=O)cc1,8.91 µM
12,COc1ccc(Oc2c(Cl)cnn(-c3ccc(C4=CCCCC4)cc3)c2=O)cc1,5.13 µM
13,COc1ccc(Oc2c(Cl)cnn(Cc3ccc(C(F)(F)F)cc3)c2=O)cc1,1.78 µM
14,COc1ccc(Oc2c(Cl)cnn(-c3ccc(Br)cc3)c2=O)cc1,6.4 µM
15,COc1ccc(Oc2c(Cl)cnn(C3=Nc4ccccc4Oc4ccccc43)c2=O)cc1,2.68 µM
16,COc1ccc(Oc2c(Cl)cnn(-c3cccc(Br)c3)c2=O)cc1,2.92 µM
17,CC(C)c1ccc(-n2ncc(Cl)c(Oc3ccc(CO)cc3)c2=O)cc1,4.73 µM
18,CCOC(=O)C(c1ccccc1Cl)n1ncc(Cl)c(Oc2ccc(OC)cc2)c1=O (stereo unspecified),3.26 µM
19,COc1ccc(Nc2ccnn(Cc3cccc4ccccc34)c2=O)cc1,> 20 µM (inactive)
20,Cc1cc(C)cc(-n2ncc(Cl)c(Oc3ccc(CO)cc3)c2=O)c1,2.25 µM
21,COc1ccc(Oc2c(Cl)cnn(Cc3ccc(F)cc3Cl)c2=O)cc1,4.16 µM
22,COc1ccc(Oc2c(Cl)cnn(-c3ccc(OC(C)C)cc3)c2=O)cc1,6.5 µM
23,COc1ccc(Oc2c(Cl)cnn(Cc3ccc(C)c(C)c3)c2=O)cc1,5.1 µM
24,COc1ccc(Oc2c(Cl)cnn(C(CO)c3cccc4ccccc34)c2=O)cc1 (stereo unspecified),9.05 µM
25,COc1ccc(Oc2c(Cl)cnn(CC3CCCCC3)c2=O)cc1,inactive

# — PubChem BioAssay AID588568 (The Scripps Research Institute Molecular Screening Center, 2011)
